From PubChem BioAssay (NCI)
“And” between values parts separate entries of the source, which are not always exact repeats. Identical values can stand only once.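 All cell lines were grown in 96-well plates and treated with compound for 48 hours. GI50 is the concentration that inhibits growth by half. TGI: concentration producing complete growth inhibition.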

How the values were obtained:
Test in all cases: NCI-60 cell line screen, 48 h
KM12 colon = test system: KM12 colon
HCT-116 colon = test system: HCT-116 colon
SF-268 CNS = test system: SF-268 CNS
HCT-15 colon = test system: HCT-15 colon
EKVX NSCLC = test system: EKVX NSCLC
SK-OV-3 ovarian = test system: SK-OV-3 ovarian
SF-539 CNS = test system: SF-539 CNS
SF-295 CNS = test system: SF-295 CNS
ACHN renal = test system: ACHN renal
RXF 393 renal = test system: RXF 393 renal

SMILES	TGI (KM12 colon)	TGI (HCT-116 colon)	TGI (SF-268 CNS)	TGI (HCT-15 colon)	TGI (EKVX NSCLC)	TGI (SK-OV-3 ovarian)	TGI (SF-539 CNS) [µM]	TGI (SF-295 CNS)	TGI (ACHN renal)	GI50 (HCT-116 colon) [µM]	GI50 (RXF 393 renal) [µM]	TGI (RXF 393 renal) [µM]	GI50 (SF-268 CNS) [µM]	GI50 (HCT-15 colon) [µM]	GI50 (EKVX NSCLC) [µM]	GI50 (SK-OV-3 ovarian) [µM]	GI50 (SF-539 CNS) [µM]	GI50 (SF-295 CNS) [µM]	GI50 (ACHN renal) [µM]	GI50 (KM12 colon) [µM]
CCCCCC/C=C/C#CCCCCCCCC(=O)O	> 100 µM	> 100 µM	> 100 µM	> 100 µM	> 100 µM	> 100 µM	> 100	> 100 µM	> 100 µM	–	–	–	–	–	–	–	–	–	–	–
CC/C=C\C[C@H]1C/C=C2/C(=O)C=C[C@H]2C/C=C\CCCC(=O)O1	–	2.55 µM	17.8 µM	7.04 µM	15.7 µM	13.1 µM	8.16	9.33 µM	3.97 µM	1	1.91	8.01	3.77	1.5	4.89	5.67	2.07	2.62	1.39	–
OCC#CCOCC#Cc1ccccc1C#CCOCC#CCO	> 100 µM	44 µM	> 100 µM	> 100 µM	> 100 µM	–	> 100	> 100 µM	85.8 µM	16.6	28.8	82.4	36.9	20.9	41.3	–	47.4	> 100	27.8	35.1
O=C(NC1CCN(Cc2ccccc2)CC1)c1cc(-c2cccnc2)nc2ccc(Cl)cc12	> 100 µM	26.4 µM	70.1 µM	30.5 µM	–	42.7 µM	24.2	26 µM	6.54 µM	5.47	4.18	19.4	9.27	4.57	–	14.1	11.9	10.6	2.36	13.7
COc1ccccc1-n1cnc(N)c1C(=O)c1cc(OC)c(OC)c(OC)c1	> 100 µM	> 100 µM	> 100 µM	> 100 µM	> 100 µM	–	9.12	> 100 µM	> 100 µM	4.95	2.19	64.5	4.44	3.36	7.55	–	2.42	2.73	5.19	3.22
O/N=C1/CCCC/C1=C/C=C/c1ccccc1	47.1 µM	29.7 µM	47.1 µM	36.2 µM	–	> 100 µM	38.3	69.8 µM	72.5 µM	–	–	41.5	–	–	–	–	–	–	–	–
Cc1ccccc1NC(=O)CC1C(=O)Nc2ccccc2S1=O (centres undefined)	–	> 100 µM	> 100 µM	> 100 µM	> 100 µM	–	94.3	> 100 µM	> 100 µM	–	–	51.8	–	–	–	–	–	–	–	–
O=C1c2c(O)cccc2C(C(=O)CCCCCC(=O)C2c3cccc(O)c3C(=O)c3c(O)cccc32)c2cccc(O)c21	3.71 µM and 5.6 µM	25 µM and 14.9 µM	4.52 µM and 11.9 µM	5.44 µM and 14.4 µM	3.68 µM and 19.5 µM	4.15 µM and 13.8 µM	–	25 µM and 3.74 µM	5.71 µM and 16.6 µM	7.61	–	–	5.02	7.25	5.64	6.3	6.64	1.48	9.48	1.65
Nc1n[n+]([O-])c2cc([N+](=O)[O-])ccc2[n+]1[O-]	–	16.5 µM	–	13.6 µM	–	61.2 µM	16	22.5 µM	14.4 µM	–	–	–	–	–	–	–	–	–	–	–
C=C1CCC2CC1C(C(=O)c1c[nH]c3ccccc13)=NC2(C)C (centres undefined)	> 100 µM	> 100 µM	> 100 µM	> 100 µM	> 100 µM	> 100 µM	> 100	–	> 100 µM	–	–	–	–	–	–	–	–	–	–	–
COc1cc(/C=C/C(=O)c2cccc3ccccc23)cc(OC)c1OC	–	13.8 µM	18.2 µM	–	28.7 µM	28.5 µM	–	22.2 µM	24.4 µM	–	–	7.93	–	–	–	–	–	–	–	–
COc1ccc(C(c2ccccc2C(=O)O)c2ccc(OC)c3ccccc23)c2ccccc12	23.1 µM	–	–	28.8 µM	49.8 µM	45.1 µM	24.4	25.6 µM	23.5 µM	–	–	–	–	–	–	–	–	–	–	–
O=C(CCc1nc(=S)[nH][nH]1)Nc1cc(Cl)ccc1Cl	> 100 µM	> 100 µM	> 100 µM	> 100 µM	> 100 µM	> 100 µM	> 100	> 100 µM	> 100 µM	–	–	–	–	–	–	–	–	–	–	–
CC1=C(C(=O)Nc2cccc(Cl)c2)C(c2ccccc2O)C(C(=O)Nc2cccc(Cl)c2)=C(C)N1	31.2 µM	–	37.9 µM	–	47.6 µM	54.4 µM	34.3	40.6 µM	53.8 µM	–	–	31.9	–	–	–	–	–	–	–	–
Cc1cccc(C(C)(C)C)c1NC(=O)C(C#N)C1=C(Cl)C(=O)c2ccccc2C1=O (centres undefined)	31.3 µM	27.2 µM	31.2 µM	–	17.1 µM	40.2 µM	32.5	30.8 µM	27.6 µM	–	–	30.6	–	–	–	–	–	–	–	–
COc1cccc(/C=N/[N-]C(=O)c2ccncc2)c1[O-].[Mn+2].[OH3+]	> 100 µM	> 100 µM	79.5 µM	> 100 µM	> 100 µM	50.2 µM	8.97	> 100 µM	47.8 µM	3.63	–	–	4.97	4.14	9.25	5.94	2.51	16.2	3.75	8.31
CC(=O)Nc1ccccc1-c1nc2ccccc2nc1-c1ccccc1	> 100 µM	> 100 µM	–	> 100 µM	> 100 µM	> 100 µM	> 100	> 100 µM	> 100 µM	–	–	> 100	–	–	–	–	–	–	–	–
O=C1OC(CC(=O)c2ccc(F)cc2)C(Cl)=C1Cl (centres undefined)	33 µM	46.2 µM	–	35.5 µM	> 100 µM	> 100 µM	35.2	> 100 µM	> 100 µM	–	–	37.5	–	–	–	–	–	–	–	–
CC(Oc1cc2oc(=O)cc(-c3ccccc3)c2cc1Cl)C(=O)O (centres undefined)	> 100 µM	> 100 µM	> 100 µM	–	> 100 µM	> 100 µM	> 100	> 100 µM	> 100 µM	–	–	> 100	–	–	–	–	–	–	–	–
